According to patent publication US10934312B2, “Tricyclic heterocycle compounds useful as HIV integrase inhibitors” (Merck Sharp & Dohme Corp., priority 2016, dated 2021):
Where two headings read alike, the source gives them in different places.

Tested on: HIV-1 (NL4-3 strain)
Assay: Assay for Inhibition of HIV Replication (VIKING, MT4-gag-GFP reporter cells)
Assay type: cell-based
Conditions: MT4-GFP cells infected with HIV-1 NL4-3, infected cells at 48 h / 24 h, read-out: VIKING IP50 (nM) with 0% NHS
Method: This assay may be useful for assessing the ability of a compound of the present invention to inhibit HIV replication. The assay is a kinetic assay that employs a reporter cell line (MT4-gag-GFP) to quantify the number of new cells infected in each round of replication.
MT4-GFP cells (250,000 cells/ml) are bulk-infected with HIV-1 (NL4-3 strain) at low multiplicity of infection (MOI) in RPMI+10% FBS for 24 hours. Cells are then washed once in RPMI+10% FBS and resuspended in RPMI+0% normal human serum (NHS). Test compounds are serial-diluted in DMSO on ECHO. The infected MT4-GFP cells are added to a 384-well poly-D-lysine coated black plate with clear bottom in which the diluted test compounds are placed. The cells are seeded at 8,000 cells per well and the final DMSO concentration is adjusted to 0.4%. The infected cells (Green GFP cells) are then quantified at both 24 and 48 hours post incubation using Acumen eX3. Viral reproductive ratio (R0) is determined using the number of infected cells at 48 hours divided by the number of infected cells at 24 hours. Percent viral growth inhibition is calculated by [1-(R—Rtripledrug)/(RDMSO—Rtripledrug)]*100. Compound potency IP or IC50 may be determined using a 4-parameter dose response curve analysis.

[1] = Human immunodeficiency virus 1, NL43, 0% normal human serum

SMILES	IC50 [1] [nM]	IC50 (0% normal human serum) [nM]
COCCN1CN2CC(OC)c3c(C(=O)NCc4ccc(F)cc4F)c(=O)c(O)c(n32)C1=O (single isomer, unassigned) [Compound 9]	1.4	
COCCN1CN2CC(OC)c3c(C(=O)NCc4ccc(F)c(Cl)c4F)c(=O)c(O)c(n32)C1=O (single isomer, unassigned) [Compound 10]	1.4	
COCCN1CN2CC(OC)c3c(C(=O)NCc4ccc(F)c(Cl)c4F)c(=O)c(O)c(n32)C1=O (single isomer, unassigned) [Compound 11]		1.1
COCCN1CN2CC(OC)c3c(C(=O)NCc4cccc(Cl)c4F)c(=O)c(O)c(n32)C1=O (single isomer, unassigned) [Compound 12]		2.3
COCCN1CN2CC(OC)c3c(C(=O)NCc4cccc(Cl)c4F)c(=O)c(O)c(n32)C1=O (single isomer, unassigned) [Compound 13]		1
COCCN1CN2CC(OC)c3c(C(=O)NCc4ccc(F)cc4)c(=O)c(O)c(n32)C1=O (single isomer, unassigned) [Compound 14]		4.6
COCCN1CN2CC(OC)c3c(C(=O)NCc4ccc(F)cc4)c(=O)c(O)c(n32)C1=O (single isomer, unassigned) [Compound 15]		1.9
COCCN1CN2CC(OC)c3c(C(=O)NCc4ccccc4F)c(=O)c(O)c(n32)C1=O (single isomer, unassigned) [Compound 16]	1.5	
COC1CN2CN(CC3CC3)C(=O)c3c(O)c(=O)c(C(=O)NCc4ccc(F)cc4F)c1n32 (single isomer, unassigned) [Compound 18]	0.4	
COC1CN2CN(CC3CC3)C(=O)c3c(O)c(=O)c(C(=O)NCc4cccc(Cl)c4F)c1n32 (single isomer, unassigned) [Compound 19]	2.4	
COC1CN2CN(CC3CC3)C(=O)c3c(O)c(=O)c(C(=O)NCc4cccc(Cl)c4F)c1n32 (single isomer, unassigned) [Compound 20]		1.2
COC1CN2CN(CC3CC3)C(=O)c3c(O)c(=O)c(C(=O)NCc4ccc(F)c(Cl)c4)c1n32 (single isomer, unassigned) [Compound 21]	1	
CCN1CN2CC(OC)c3c(C(=O)NCc4ccc(F)cc4F)c(=O)c(O)c(n32)C1=O (single isomer, unassigned) [Compound 23]	4.1	
CCN1CN2CC(OC)c3c(C(=O)NCc4ccc(F)c(Cl)c4F)c(=O)c(O)c(n32)C1=O (single isomer, unassigned) [Compound 24]	1.5	
CCN1CN2CC(OC)c3c(C(=O)NCc4ccc(F)c(Cl)c4F)c(=O)c(O)c(n32)C1=O (single isomer, unassigned) [Compound 25]		0.9
CCN1CN2CC(OC)c3c(C(=O)NCc4cccc(Cl)c4F)c(=O)c(O)c(n32)C1=O (single isomer, unassigned) [Compound 26]	1.5	
CCN1CN2CC(OC)c3c(C(=O)NCc4cccc(Cl)c4F)c(=O)c(O)c(n32)C1=O (single isomer, unassigned) [Compound 27]		1.2
COC1CN2CN(C)C(=O)c3c(O)c(=O)c(C(=O)NCc4ccc(F)cc4F)c1n32 (single isomer, unassigned) [Compound 29]	9.9	

SMILES	IC50 [1] [nM]	IC50 (0% normal human serum) [nM]
COC1CN2CN(C)C(=O)c3c(O)c(=O)c(C(=O)NCc4cccc(Cl)c4F)c1n32 (single isomer, unassigned) [Compound 30]		1.5
COC1CN2CN(C)C(=O)c3c(O)c(=O)c(C(=O)NCc4cccc(Cl)c4F)c1n32 (single isomer, unassigned) [Compound 31]		0.5
COC1CN2CN(C)C(=O)c3c(O)c(=O)c(C(=O)NCc4ccc(F)c(Cl)c4)c1n32 (single isomer, unassigned) [Compound 32]	1.2	
COC1CN2CN(C)C(=O)c3c(O)c(=O)c(C(=O)NCc4ccc(F)c(Cl)c4)c1n32 (single isomer, unassigned) [Compound 33]		0.8
CC(C)N1CN2C(=O)N(C)Cc3c(C(=O)NCc4ccc(F)cc4F)c(=O)c(O)c(n32)C1=O [Compound 4]	2	
COCCN1CN2C(=O)N(C)Cc3c(C(=O)NCc4ccc(F)cc4F)c(=O)c(O)c(n32)C1=O [Compound 5]	1.7	
COC1CN2CN(C(C)C)C(=O)c3c(O)c(=O)c(C(=O)NCc4ccc(F)cc4F)c1n32 (stereo not drawn) [Compound 7]	13.3	
CCN1CN2CC(OC)c3c(C(=O)NCc4ccc(F)cc4F)c(=O)c(O)c(n32)C1=O (stereo not drawn) [Compound 22]	2.1	
CCN1Cn2ccc3c(C(=O)NCc4ccc(F)cc4F)c(=O)c(O)c(n32)C1=O [Compound 34]	11.5	
CCN1CN2CCc3c(C(=O)NCc4ccc(F)cc4F)c(=O)c(O)c(n32)C1=O [Compound 35]	2.2	
CCN1CN2CCCc3c(C(=O)NCc4ccc(F)cc4F)c(=O)c(O)c(n32)C1=O [Compound 36]	11.4	
COC1CN2n3c(c(O)c(=O)c(C(=O)NCc4ccc(F)cc4F)c31)C(=O)N(C)C21CCOC1 (stereo not drawn) [Compound 37]		8.5
COC1CN2n3c(c(O)c(=O)c(C(=O)NCc4ccc(F)cc4F)c31)C(=O)N(C)C21CCOC1 (stereo not drawn) [Compound 38]	2.6	
COC1CN2n3c(c(O)c(=O)c(C(=O)NCc4ccc(F)cc4F)c31)C(=O)N(C)C21CCOC1 (stereo not drawn) [Compound 39]		2.4
COC1CN2n3c(c(O)c(=O)c(C(=O)NCc4ccc(F)cc4F)c31)C(=O)N(C)C21CCOC1 (stereo not drawn) [Compound 40]		3.8
CN1CN2CCc3c(C(=O)NCc4c(F)cc(F)cc4F)c(=O)c(O)c(n32)C1=O [Compound 41]	2.9	
CN1CN2CCc3c(C(=O)NCc4ccc(F)cc4F)c(=O)c(O)c(n32)C1=O [Compound 42]	1.6	
CN1CN2CCc3c(C(=O)NCc4c(F)ccc(Cl)c4F)c(=O)c(O)c(n32)C1=O [Compound 43]	1.8	
